Results published in article PMC6270184, “Synthesis and Structure-Activity Relationships of Amino Acid Conjugates of Cholanic Acid as Antagonists of the EphA2 Receptor” (Molecules, 2013).
Where two headings read alike, the source gives them in different places.

Assays:
[1] = target: T1, EphA2 receptor (Mus musculus, UniProt Q03145); assay: ELISA displacement of ephrin-A1 binding from immobilized EphA2 receptor; conditions: for ability to disrupt the EphA2-ephrin-A1 interaction (in words): ELISA binding assay
Procedure: The pIC50 values of tested compounds are reported in Table 1, together with the corresponding standard deviations of the mean (SEM).
ELISA assays were performed as previously described. Briefly, compounds were stocked as 5 mM solutions in dimethyl sulfoxide (DMSO) and tested in displacing studies, starting from a concentration of 50 µM. […] The reaction was stopped with 3N HCl 100 µL/well and the absorbance was measured using an ELISA plate reader (Sunrise, TECAN, Männedorf, Switzerland) at 450 nm. IC50 values were determined using one-site competition non-linear regression analysis with Prism software (GraphPad Software Inc., San Diego, CA, USA).

[2] = target: T1, EphA2 receptor; conditions: cited from earlier work
[3] = system: FXR; conditions: cited from earlier work
[4] = system: TGR5 receptor; conditions: cited from earlier work
[5] = inhibition of biotinylated ephrin-A1-Fc binding to EphA2-Fc, means ± SEM from at least three independent experiments, read-out: pIC50±SEM (converted)
[6] = ref data from an unpublished study

T1 sequence (Q03145 with tags, fused parts or gaps limits assumed): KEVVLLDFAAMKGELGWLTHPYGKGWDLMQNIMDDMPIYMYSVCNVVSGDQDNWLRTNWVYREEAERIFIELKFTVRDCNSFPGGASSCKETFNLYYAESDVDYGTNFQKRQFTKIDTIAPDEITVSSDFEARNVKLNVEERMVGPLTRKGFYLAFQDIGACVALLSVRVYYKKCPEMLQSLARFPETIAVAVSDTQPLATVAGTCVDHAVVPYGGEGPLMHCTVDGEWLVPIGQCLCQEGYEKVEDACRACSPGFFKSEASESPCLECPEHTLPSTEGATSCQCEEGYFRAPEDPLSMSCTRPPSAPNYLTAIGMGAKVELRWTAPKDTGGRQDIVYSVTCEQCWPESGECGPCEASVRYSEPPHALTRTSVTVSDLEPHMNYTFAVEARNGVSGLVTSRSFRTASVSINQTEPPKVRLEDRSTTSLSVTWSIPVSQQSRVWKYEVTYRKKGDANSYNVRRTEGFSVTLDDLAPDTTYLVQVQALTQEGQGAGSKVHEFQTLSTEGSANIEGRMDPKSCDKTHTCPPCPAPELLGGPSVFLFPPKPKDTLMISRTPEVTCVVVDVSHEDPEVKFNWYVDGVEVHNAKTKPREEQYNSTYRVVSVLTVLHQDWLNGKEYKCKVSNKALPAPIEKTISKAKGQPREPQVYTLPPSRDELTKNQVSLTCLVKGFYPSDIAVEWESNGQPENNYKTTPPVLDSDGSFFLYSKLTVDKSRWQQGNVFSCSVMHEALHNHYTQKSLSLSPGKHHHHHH

## C[C@H](CCC(=O)O)[C@H]1CC[C@H]2[C@@H]3CCC4CCCC[C@]4(C)[C@H]3CC[C@]12C (some centres unmarked) [Compound 1, cholanic acid]
[1]
  IC50: 12.3 µM
[2]
  pIC50, inhibition of the EphA2-ephrin-A1 interaction: 4.91

## C[C@H](CCC(=O)NCC(=O)O)[C@H]1CC[C@H]2[C@@H]3CC[C@@H]4CCCC[C@]4(C)[C@H]3CC[C@]12C [Compound 2, N-(5β-cholan-24-oyl)glycine]
other
  melting point: 192 to 195 °C

## COC(=O)CNC(=O)CC[C@@H](C)[C@H]1CC[C@H]2[C@@H]3CC[C@@H]4CCCC[C@]4(C)[C@H]3CC[C@]12C [Compound 3, Methyl N-(5β-cholan-24-oyl)glycinate]
[1]
  ability to disrupt the EphA2-ephrin-A1 interaction (in words): inactive
[1]; [5]
  IC50: > 316 µM

## C[C@H](CCC(=O)NCCC(=O)O)[C@H]1CC[C@H]2[C@@H]3CC[C@@H]4CCCC[C@]4(C)[C@H]3CC[C@]12C [Compound 4, N-(5β-Cholan-24-oyl)-β-alanine]
other
  melting point: 152 to 155 °C

## C[C@H](CCC(=O)NCCS(=O)(=O)O)[C@H]1CC[C@H]2[C@@H]3CC[C@@H]4CCCC[C@]4(C)[C@H]3CC[C@]12C [Compound 5, 2-[N-(5β-Cholan-24-oyl)amino]ethanesulfonic Acid]
[1]
  ability to disrupt the EphA2-ephrin-A1 interaction (in words): loss of inhibitory activity
[1]; [5]
  IC50: > 316 µM

## C[C@H](CCC(=O)N[C@@H](Cc1ccccc1)C(=O)O)[C@H]1CC[C@H]2[C@@H]3CC[C@@H]4CCCC[C@]4(C)[C@H]3CC[C@]12C [Compound 6, N-(5β-Cholan-24-oyl)-L-phenylalanine]
[1]; [5]
  IC50: 21.4 µM
other
  melting point: 189 to 192 °C

## C[C@H](CCC(=O)N[C@H](Cc1ccccc1)C(=O)O)[C@H]1CC[C@H]2[C@@H]3CC[C@@H]4CCCC[C@]4(C)[C@H]3CC[C@]12C [Compound 7, N-(5β-cholan-24-oyl)-D-phenylalanine]
[1]; [5]
  IC50: 26.3 µM
other
  melting point: 195 to 198 °C

## C[C@H](CCC(=O)N[C@@H](Cc1c[nH]c2ccccc12)C(=O)O)[C@H]1CC[C@H]2[C@@H]3CC[C@@H]4CCCC[C@]4(C)[C@H]3CC[C@]12C [Compound 8, N-(5β-cholan-24-oyl)-L-tryptophan]
[1]; [5]
  IC50: 28.2 µM
other
  melting point: 98 to 101 °C

## C[C@H](CCC(=O)N[C@H](Cc1c[nH]c2ccccc12)C(=O)O)[C@H]1CC[C@H]2[C@@H]3CC[C@@H]4CCCC[C@]4(C)[C@H]3CC[C@]12C [Compound 9, N-(5β-cholan-24-oyl)-D-tryptophan]
[1]; [5]
  IC50: 63.1 µM
other
  melting point: 141 to 145 °C

## C[C@H](CCC(=O)O)[C@H]1CC[C@H]2[C@@H]3CC[C@@H]4C[C@H](O)CC[C@]4(C)[C@H]3CC[C@]12C [LCA, lithocholic acid]
[3]
  agonism of FXR (in words): rather potent agonist
[4]
  agonism of TGR5 (in words): rather potent agonist

## C[C@H](CCC(=O)N[C@@H](Cc1c[nH]c2ccccc12)C(=O)O)[C@H]1CC[C@H]2[C@@H]3CC[C@@H]4C[C@H](O)CC[C@]4(C)[C@H]3CC[C@]12C [PCM126/UniPR126]
[3]; [6]
  interaction with FXR (in words): does not interact
[4]; [6]
  activity on TGR5 receptor (in words): micromolar range
